According to patent publication US11498929B2, “Chromenopyrimidine derivatives as phosphatidylinsitol phosphate kinase inhibitors” (Hibercell, Inc., priority 2019, dated 2022):

How the values were obtained:
[1] = target: T1, PIP4K2 B (GST-tagged PIP4KtypeIIB) (Homo sapiens, UniProt P78356); assay: Kinase Assay - PIP4K2 B (inhibition of PIP4K2 B kinase assay); format: biochemical; conditions: compounds listed under IC50 bin headings
T1 construct: GST; made in house; host or cells: E. coli
T1 sequence (P78356 1-416): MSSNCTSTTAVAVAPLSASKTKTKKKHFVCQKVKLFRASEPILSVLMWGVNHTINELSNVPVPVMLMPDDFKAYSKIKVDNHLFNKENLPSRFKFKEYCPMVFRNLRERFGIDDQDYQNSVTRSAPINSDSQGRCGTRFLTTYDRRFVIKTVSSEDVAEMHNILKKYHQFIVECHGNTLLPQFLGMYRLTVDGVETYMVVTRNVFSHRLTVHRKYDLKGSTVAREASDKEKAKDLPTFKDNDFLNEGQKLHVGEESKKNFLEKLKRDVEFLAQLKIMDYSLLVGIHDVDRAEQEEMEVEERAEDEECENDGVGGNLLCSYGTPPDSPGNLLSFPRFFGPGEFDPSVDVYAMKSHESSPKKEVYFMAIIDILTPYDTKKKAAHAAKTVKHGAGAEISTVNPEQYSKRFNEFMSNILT
Source text: GST tagged PIP4KtypeIIA and B enzymes were overexpressed in E. Coli and purified to >80% homogeneity. Phosphatidyl inositol-5-phosphate (PI5P, Cat. #850152, Avanti Polar Lipids Inc.) was used as the lipid substrate and phosphatidyl ethanolamine (DOPE 18:1, Cat. #850725, Avanti Polar Lipids Inc.) was used as the carrier lipid for assays. Ultrapure ATP and GTP was purchased from Bellbrooke Labs. ADP Glo reagents were obtained from Promega. Transcreener FI reagent was obtained from Bellbrooke labs.
GST-tagged PIP4KtypeIIB (3.4 uL, 2.77 mg/mL) was diluted to 5 mL using HNE buffer to yield 5× enzyme stock (25 nM)
Lipid Preparation: In a 10 mL pyrex glass vial, 1 ug of PI5P and 1 ug of DOPE were suspended in 2.5 mL of HEPES buffer mix and 2.5 mL of H:E buffer. The contents were mixed and sonicated for 3 min to yield a translucent lipid stock.
Compound Preparation: Compounds were stored as 5 mM stocks in neat DMSO as room temperature in glass vials. 5 mM stocks were diluted to 2 mM and then serially diluted (3×) in neat DMSO in 96 well polypropylene plates. From the serially diluted stocks, 3 uL was delivered into 250 uL of 25% DMSO (in water) to generate 5× compound stocks. Typically, the highest compound conc. was 24 uM.
The assay volume was kept at 25 uL. To each well of the reaction plate, 10 uL of lipid stock (1:1 ratio PI5P:DOPE) was delivered. This was followed by the addition of 5 uL of compound in 25% DMSO. Then, to each well, 5 uL of 25 nM (5×) typeIIB enzyme was delivered. The contents were mixed well and incubated for 1 h at 27 C. After 1 h, reaction was initiated by adding 5 uL of 500 uM GTP and the contents were mixed well with a multi-channel pipetteman. The final concentration of the reagents are as follows: 50 mM HEPES, pH 7.3, 10 mM MgCl2, 20 mM NaCl, 0.01% v/v triton-X100, 5% DMSO, 100 uM GTP, 80 uM (2 ug) PI5P, 2 ug DOPE, and 5 nM PIP4KIIB Typically, the highest conc. of compounds was 4.8 uM and the lowest conc. was 0.
After 2 h, the reaction was quenched by adding 25 uL of transcreener FI reagent. The contents were incubated at RT for 1 h and the Fluorescence (Ex:584 Em: 623) was read using Molecular Devices Paradigm plate reader. […] The blanks were averaged and subtracted from all other wells. Using a calibration curve, RFU was converted to uM GDP (product). IC50 was calculated by plotting the residual activity (expressed as % No inhibitor control) vs. log [Inh. conc.]

MOLM-16 = MOLM-16 EC50 assay; format: cell-based; conditions: MOLM16
PIP4K2A = target: T2, PIP4K2A (Homo sapiens, UniProt P48426); assay: Kinase Assay - PIP4K2 A (inhibition of PIP4K2 A kinase assay); format: biochemical; conditions: compounds listed under IC50 bin headings
T2 construct: GST; made in house; host or cells: E. coli
T2 sequence (P48426 1-406): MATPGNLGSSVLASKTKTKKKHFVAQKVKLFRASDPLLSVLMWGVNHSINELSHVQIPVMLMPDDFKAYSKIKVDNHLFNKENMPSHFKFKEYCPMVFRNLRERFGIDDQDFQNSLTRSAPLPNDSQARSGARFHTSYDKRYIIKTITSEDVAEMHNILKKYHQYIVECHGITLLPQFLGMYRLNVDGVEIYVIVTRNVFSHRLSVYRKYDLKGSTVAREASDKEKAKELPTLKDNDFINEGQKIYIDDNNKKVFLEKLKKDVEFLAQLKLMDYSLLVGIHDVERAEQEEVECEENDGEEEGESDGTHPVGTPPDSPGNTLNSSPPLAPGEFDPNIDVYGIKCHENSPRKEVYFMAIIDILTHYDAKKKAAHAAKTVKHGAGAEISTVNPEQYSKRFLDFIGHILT
Procedure: Dilution series of the compounds were prepared in DMSO at 100 times the final assay concentration (n1=n0/3 in 10 points). The compounds were further diluted to three times the assay concentration in assay buffer (20 mM MOPS pH 7.2, 25 mM magnesium chloride, 0.005% Tween 20). 6 μL of the diluted compounds were added to a 384 well assay plate followed by 9 μL of a mix consisting of 4 nM PIP4K2A (full length protein, SignalChem) and 100 μM PI(5)P diC8 (Tebu-Bio). Enzyme and compounds were pre-incubated at room temperature for 15 minutes.
Then 3 μL of a solution containing 60 μM ATP (Promega) in assay buffer was added to the wells containing compound and enzyme and mixing was performed by pipetting several times. The reaction was incubated at room temperature for 1 h. Then 18 μL of ADP-Glo™ Reagent (Promega) was added to stop the kinase reaction and deplete the unconsumed ATP, mixing was performed by pipetting several times. The plate was incubated at room temperature for 40 minutes before addition of 36 μL of Kinase Detection Reagent (Promega) to convert ADP to ATP and introduce luciferase and luciferin to detect ATP. The reaction was incubated at room temperature for 40 minutes before the luminescence was measured in a in a Victor 3V 1420 multilabel counter (Perkin Elmer).
Percent inhibition of the compounds as compared to dimethyl sulfoxide treated control samples was calculated. Compound concentration versus percent inhibition were fitted to generate IC50 values. […]

## CCN(CC)CCN(C)c1cncc(Nc2ncc3c(n2)C(C)(C)Oc2cc(N4CCCC4=O)ccc2-3)c1 [Compound 32, 1-{3-[(5-{[2-(diethylamino)ethyl](methyl)amino}pyridin-3-yl)amino]-5,5-dimethyl-5H-chromeno[3,4-d]pyrimidin-8-yl}pyrrolidin-2-one]
[1]
  IC50: 100 to 1000 nM
MOLM-16
  EC50: 10 to 100 nM
PIP4K2A
  IC50: 10 to 100 nM

## Cc1conc1-c1ccc2c(c1)OC(C)(C)c1nc(Nc3cnc4c(c3)N(C(=O)N(C)C)CCO4)ncc1-2 [Compound 15, 7-{[5,5-dimethyl-8-(4-methyl-1,2-oxazol-3-yl)-5H-chromeno[3,4-d]pyrimidin-3-yl]amino}-N,N-dimethyl-1H,2H,3H-pyrido[2,3-b][1,4]oxazine-1-carboxamide]
[1]
  IC50: 1 to 10 nM
MOLM-16
  EC50: 100 to 1000 nM
PIP4K2A
  IC50: ≤ 1 nM

## C[C@@H]1CCC(=O)N1c1ccc2c(c1)OC(C)(C)c1nc(Nc3cnc4c(c3)N(C(=O)CN(C)C)CCO4)ncc1-2 [Compound 3, (5R)-1-[3-({1-[2-(dimethylamino)acetyl]-1H,2H,3H-pyrido[2,3-b][1,4]oxazin-7-yl}amino)-5,5-dimethyl-5H-chromeno[3,4-d]pyrimidin-8-yl]-5-methylpyrrolidin-2-one]
[1]
  IC50: 1 to 10 nM
MOLM-16
  EC50: 10 to 100 nM
PIP4K2A
  IC50: 1 to 10 nM

## Cc1cnnn1-c1ccc2c(c1)OC(C)(C)c1nc(Nc3cnc4c(c3)N(C(=O)CN(C)C)CCO4)ncc1-2 [Compound 10, 1-(7-{[5,5-dimethyl-8-(5-methyl-1H-1,2,3-triazol-1-yl)-5H-chromeno[3,4-d]pyrimidin-3-yl]amino}-1H,2H,3H-pyrido[2,3-b][1,4]oxazin-1-yl)-2-(dimethylamino)ethan-1-one]
[1]
  IC50: 1 to 10 nM
MOLM-16
  EC50: 100 to 1000 nM
PIP4K2A
  IC50: ≤ 1 nM

## CCN1CCN(Cc2cncc(Nc3ncc4c(n3)C(C)(C)Oc3cc(-n5nncc5C)ccc3-4)c2)CC1 [Compound 17, N-[5,5-dimethyl-8-(5-methyl-1H-1,2,3-triazol-1-yl)-5H-chromeno[3,4-d]pyrimidin-3-yl]-5-[(4-ethylpiperazin-1-yl)methyl]pyridin-3-amine]
[1]
  IC50: 1 to 10 nM
MOLM-16
  EC50: 100 to 1000 nM
PIP4K2A
  IC50: ≤ 1 nM

## CNC(=O)N1CCOc2ncc(Nc3ncc4c(n3)C(C)(C)Oc3cc(-n5nncc5C)ccc3-4)cc21 [Compound 8, 7-{[5,5-dimethyl-8-(5-methyl-1H-1,2,3-triazol-1-yl)-5H-chromeno[3,4-d]pyrimidin-3-yl]amino}-N-methyl-1H,2H,3H-pyrido[2,3-b][1,4]oxazine-1-carboxamide]
[1]
  IC50: 1 to 10 nM
MOLM-16
  EC50: 100 to 1000 nM
PIP4K2A
  IC50: ≤ 1 nM

## CC1(C)Oc2cc(N3CCCC3=O)ccc2-c2cnc(Nc3cncc(N4CCN(CCO)CC4)c3)nc21 [Compound 19, 1-[3-({5-[4-(2-hydroxyethyl)piperazin-1-yl]pyridin-3-yl}amino)-5,5-dimethyl-5H-chromeno[3,4-d]pyrimidin-8-yl]pyrrolidin-2-one]
[1]
  IC50: 10 to 100 nM
MOLM-16
  EC50: 10 to 100 nM
PIP4K2A
  IC50: 1 to 10 nM

## CNC(=O)N1CCOc2ncc(Nc3ncc4c(n3)C(C)(C)Oc3cc(N5CCCC5=O)ccc3-4)cc21 [Compound 7, 7-{[5,5-dimethyl-8-(2-oxopyrrolidin-1-yl)-5H-chromeno[3,4-d]pyrimidin-3-yl]amino}-N-methyl-1H,2H,3H-pyrido[2,3-b][1,4]oxazine-1-carboxamide]
[1]
  IC50: 1 to 10 nM
MOLM-16
  EC50: 10 to 100 nM
PIP4K2A
  IC50: ≤ 1 nM

## CCN(CC)CCN1CCOc2ncc(Nc3ncc4c(n3)C(C)(C)Oc3cc(N5CCCC5=O)ccc3-4)cc21 [Compound 36, 1-[3-({1-[2-(diethylamino)ethyl]-1H,2H,3H-pyrido[2,3-b][1,4]oxazin-7-yl}amino)-5,5-dimethyl-5H-chromeno[3,4-d]pyrimidin-8-yl]pyrrolidin-2-one]
[1]
  IC50: > 1000 nM
MOLM-16
  EC50: 10 to 100 nM
PIP4K2A
  IC50: 100 to 1000 nM

## CN(C)CCOc1cncc(Nc2ncc3c(n2)C(C)(C)Oc2cc(N4CCCC4=O)ccc2-3)c1 [Compound 33, 1-[3-({5-[2-(dimethylamino)ethoxy]pyridin-3-yl}amino)-5,5-dimethyl-5H-chromeno[3,4-d]pyrimidin-8-yl]pyrrolidin-2-one]
[1]
  IC50: 100 to 1000 nM
MOLM-16
  EC50: 10 to 100 nM
PIP4K2A
  IC50: 10 to 100 nM

## CC1(C)Oc2cc(N3CCCC3=O)ccc2-c2cnc(Nc3cnc4c(c3)N(C(=O)NCCN3CCOCC3)CCO4)nc21 [Compound 2, 7-{[5,5-dimethyl-8-(2-oxopyrrolidin-1-yl)-5H-chromeno[3,4-d]pyrimidin-3-yl]amino}-N-[2-(morpholin-4-yl)ethyl]-1H,2H,3H-pyrido[2,3-b][1,4]oxazine-1-carboxamide]
[1]
  IC50: 1 to 10 nM
MOLM-16
  EC50: 10 to 100 nM
PIP4K2A
  IC50: 1 to 10 nM

## CCN1CCN(Cc2cncc(Nc3ncc4c(n3)C(C)(C)Oc3cc(N5CCCC5=O)ccc3-4)c2)CC1 [Compound 4, 1-[3-({5-[(4-ethylpiperazin-1-yl)methyl]pyridin-3-yl}amino)-5,5-dimethyl-5H-chromeno[3,4-d]pyrimidin-8-yl]pyrrolidin-2-one]
[1]
  IC50: 100 to 1000 nM
MOLM-16
  EC50: 10 to 100 nM
PIP4K2A
  IC50: 10 to 100 nM

## CCN(CC)CCNC(=O)N1CCOc2ncc(Nc3ncc4c(n3)C(C)(C)Oc3cc(N5CCCC5=O)ccc3-4)cc21 [Compound 1, N-[2-(diethylamino)ethyl]-7-{[5,5-dimethyl-8-(2-oxopyrrolidin-1-yl)-5H-chromeno[3,4-d]pyrimidin-3-yl]amino}-1H,2H,3H-pyrido[2,3-b][1,4]oxazine-1-carboxamide]
[1]
  IC50: 10 to 100 nM
MOLM-16
  EC50: 10 to 100 nM
PIP4K2A
  IC50: 1 to 10 nM

## CC(=O)OC(C)C(=O)N1CCOc2ncc(Nc3ncc4c(n3)C(C)(C)Oc3cc(-n5nncc5C)ccc3-4)cc21 (stereo not drawn) [Compound 12, 1-(7-{[5,5-dimethyl-8-(5-methyl-1H-1,2,3-triazol-1-yl)-5H-chromeno[3,4-d]pyrimidin-3-yl]amino}-1H,2H,3H-pyrido[2,3-b][1,4]oxazin-1-yl)-1-oxopropan-2-yl acetate]
[1]
  IC50: 1 to 10 nM
MOLM-16
  EC50: > 1000 nM
PIP4K2A
  IC50: ≤ 1 nM
